Measurements as given in ChEMBL document CHEMBL1909046, “DrugMatrix in vitro pharmacology data”.

Key:
[1] = DRUGMATRIX: Purinergic P2X radioligand binding (ligand: [3H] alpha, beta-Methylene-ATP); format: cell membranes, Oryctolagus cuniculus, New Zealand albino, Urinary bladder, Membrane; conditions: Not Active = under 50% inhibition at 10 µM
[2] = target: Histamine H2 receptor (Homo sapiens, UniProt P25021); format: cell membranes, CHO-K1, Membrane; conditions: cho-k1; also: in other assays of this panel Not Active means under 50% inhibition at 10 µM
Chain of Histamine H2 receptor (P25021 whole entry): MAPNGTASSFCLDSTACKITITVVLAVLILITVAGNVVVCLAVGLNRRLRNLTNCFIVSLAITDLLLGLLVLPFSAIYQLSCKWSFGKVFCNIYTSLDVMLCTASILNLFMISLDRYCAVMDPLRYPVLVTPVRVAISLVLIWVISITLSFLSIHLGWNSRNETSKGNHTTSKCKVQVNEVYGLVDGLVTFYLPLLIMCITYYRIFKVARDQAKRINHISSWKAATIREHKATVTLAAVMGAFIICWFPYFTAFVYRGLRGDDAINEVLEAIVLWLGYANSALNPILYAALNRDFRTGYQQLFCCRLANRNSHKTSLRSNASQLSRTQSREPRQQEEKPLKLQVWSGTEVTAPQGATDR

[3] = DRUGMATRIX: beta-Lactamase enzyme inhibition (substrate: Nitrocefin); design: species or system Bacillus cereus; conditions: Not Active = under 50% inhibition at 10 µM
[4] = DRUGMATRIX: Sigma2 radioligand binding (ligand: [3H] Ifenprodil); format: cell membranes, Rattus norvegicus, Wistar, Brain, Membrane; conditions: Not Active = under 50% inhibition at 10 µM
[5] = DRUGMATRIX: Phorbol Ester radioligand binding (ligand: [3H] PDBu); format: cell membranes, Mus musculus, ICR, Brain, Membrane; conditions: Not Active = under 50% inhibition at 10 µM
[6] = target: D(1A) dopamine receptor (Homo sapiens, UniProt P21728); assay: DRUGMATRIX: Dopamine D1 radioligand binding (ligand: [3H] SCH-23390); format: cell membranes, CHO, Membrane; conditions: cho; Not Active = under 50% inhibition at 10 µM
Chain of D(1A) dopamine receptor (P21728 whole entry): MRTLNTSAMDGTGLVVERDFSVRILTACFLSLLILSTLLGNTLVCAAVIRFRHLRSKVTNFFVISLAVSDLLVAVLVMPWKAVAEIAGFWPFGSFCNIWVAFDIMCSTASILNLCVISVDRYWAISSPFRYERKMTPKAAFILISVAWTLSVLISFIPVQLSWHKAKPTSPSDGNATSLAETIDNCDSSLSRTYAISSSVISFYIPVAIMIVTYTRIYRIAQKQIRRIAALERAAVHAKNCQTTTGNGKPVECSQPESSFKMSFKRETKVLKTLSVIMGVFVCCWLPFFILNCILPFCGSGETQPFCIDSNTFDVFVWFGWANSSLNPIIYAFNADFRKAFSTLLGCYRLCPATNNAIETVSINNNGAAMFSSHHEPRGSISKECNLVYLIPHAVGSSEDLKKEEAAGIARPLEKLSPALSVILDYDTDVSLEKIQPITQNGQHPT

[7] = target: T1, Adenosine receptor A1 (Homo sapiens, UniProt P30542); format: cell membranes, CHO, Membrane;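 also: radioligand binding assay at the adenosine A1 receptor, with DPCPX serving as the labelled ligand; in other assays of this panel Not Active means under 50% inhibition at 10 µM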
T1 sequence (P30542 whole entry): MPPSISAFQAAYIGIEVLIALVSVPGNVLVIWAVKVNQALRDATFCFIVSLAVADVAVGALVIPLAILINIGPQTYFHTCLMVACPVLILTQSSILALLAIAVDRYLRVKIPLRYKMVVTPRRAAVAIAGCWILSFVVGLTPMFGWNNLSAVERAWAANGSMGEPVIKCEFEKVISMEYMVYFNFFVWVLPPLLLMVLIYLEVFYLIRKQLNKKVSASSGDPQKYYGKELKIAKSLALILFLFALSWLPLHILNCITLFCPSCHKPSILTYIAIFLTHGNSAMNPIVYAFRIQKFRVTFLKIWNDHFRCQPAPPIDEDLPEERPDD

[8] = target: T2, Calcitonin receptor (Homo sapiens, UniProt P30988); format: cell membranes, Membrane; conditions: t47d; also: in other assays of this panel Not Active means under 50% inhibition at 10 µM
T2 sequence (P30988 whole entry): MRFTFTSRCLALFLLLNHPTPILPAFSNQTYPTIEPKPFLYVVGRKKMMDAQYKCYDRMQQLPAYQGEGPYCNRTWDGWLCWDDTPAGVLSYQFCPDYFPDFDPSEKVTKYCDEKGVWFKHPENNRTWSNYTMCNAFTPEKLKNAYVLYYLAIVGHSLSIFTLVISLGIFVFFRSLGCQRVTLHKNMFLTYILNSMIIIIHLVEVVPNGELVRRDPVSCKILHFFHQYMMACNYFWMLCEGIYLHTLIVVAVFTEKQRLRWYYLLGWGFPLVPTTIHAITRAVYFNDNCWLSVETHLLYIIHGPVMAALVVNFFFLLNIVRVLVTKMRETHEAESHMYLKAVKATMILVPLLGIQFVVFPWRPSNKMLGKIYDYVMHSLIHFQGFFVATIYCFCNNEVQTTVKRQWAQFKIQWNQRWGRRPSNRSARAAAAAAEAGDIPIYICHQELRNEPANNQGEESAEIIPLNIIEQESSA

[9] = target: T3, Polyunsaturated fatty acid lipoxygenase ALOX15 (Oryctolagus cuniculus, UniProt P12530); assay: biochemical; format: tissue-based, Reticulocytes;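 also: inhibition of 15-lipoxygenase enzyme activity measured with linoleic acid as the substrate; in other assays of this panel Not Active means under 50% inhibition at 10 µM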
T3 sequence (P12530 whole entry): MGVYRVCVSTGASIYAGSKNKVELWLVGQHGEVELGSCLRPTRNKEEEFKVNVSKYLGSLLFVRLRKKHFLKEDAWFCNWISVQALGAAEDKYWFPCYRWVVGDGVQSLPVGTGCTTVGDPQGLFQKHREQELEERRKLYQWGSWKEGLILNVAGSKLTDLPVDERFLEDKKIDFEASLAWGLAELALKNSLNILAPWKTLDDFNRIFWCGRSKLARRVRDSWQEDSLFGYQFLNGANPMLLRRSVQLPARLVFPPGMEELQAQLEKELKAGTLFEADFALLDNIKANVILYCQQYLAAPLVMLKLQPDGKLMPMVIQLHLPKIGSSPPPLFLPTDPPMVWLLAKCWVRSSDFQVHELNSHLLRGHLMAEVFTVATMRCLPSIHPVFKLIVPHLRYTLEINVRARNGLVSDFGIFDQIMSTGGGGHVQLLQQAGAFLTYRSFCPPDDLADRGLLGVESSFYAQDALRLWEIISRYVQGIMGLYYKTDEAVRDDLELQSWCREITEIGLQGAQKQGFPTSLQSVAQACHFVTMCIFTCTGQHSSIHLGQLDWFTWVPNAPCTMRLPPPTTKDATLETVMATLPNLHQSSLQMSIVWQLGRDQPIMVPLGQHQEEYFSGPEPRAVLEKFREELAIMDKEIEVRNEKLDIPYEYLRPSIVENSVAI

[10] = DRUGMATRIX: Platelet-Derived Growth Factor (PDGF) radioligand binding (ligand: [125I] PDGF); format: cell-based; conditions: nih3t3; Not Active = under 50% inhibition at 10 µM
[11] = target: Mitogen-activated protein kinase 14 (Homo sapiens, UniProt Q16539); design: species or system Escherichia coli
Chain of Mitogen-activated protein kinase 14 (Q16539 whole entry): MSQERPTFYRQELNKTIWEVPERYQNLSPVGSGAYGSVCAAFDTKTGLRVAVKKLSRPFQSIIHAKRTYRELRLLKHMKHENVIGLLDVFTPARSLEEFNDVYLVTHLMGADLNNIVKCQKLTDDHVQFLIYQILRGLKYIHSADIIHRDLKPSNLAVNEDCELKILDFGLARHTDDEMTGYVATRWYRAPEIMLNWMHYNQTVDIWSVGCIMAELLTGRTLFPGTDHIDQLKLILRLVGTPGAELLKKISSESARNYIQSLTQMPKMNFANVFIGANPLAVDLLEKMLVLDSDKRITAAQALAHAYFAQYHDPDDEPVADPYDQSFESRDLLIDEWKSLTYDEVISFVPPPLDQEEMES

[12] = target: Beta-1 adrenergic receptor (Homo sapiens, UniProt P08588); assay: DRUGMATRIX: Adrenergic beta1 radioligand binding (ligand: [125I] Cyanopindolol); format: cell membranes, CHO-K1, Membrane; conditions: cho-k1; Not Active = under 50% inhibition at 10 µM
Chain of Beta-1 adrenergic receptor (P08588 whole entry): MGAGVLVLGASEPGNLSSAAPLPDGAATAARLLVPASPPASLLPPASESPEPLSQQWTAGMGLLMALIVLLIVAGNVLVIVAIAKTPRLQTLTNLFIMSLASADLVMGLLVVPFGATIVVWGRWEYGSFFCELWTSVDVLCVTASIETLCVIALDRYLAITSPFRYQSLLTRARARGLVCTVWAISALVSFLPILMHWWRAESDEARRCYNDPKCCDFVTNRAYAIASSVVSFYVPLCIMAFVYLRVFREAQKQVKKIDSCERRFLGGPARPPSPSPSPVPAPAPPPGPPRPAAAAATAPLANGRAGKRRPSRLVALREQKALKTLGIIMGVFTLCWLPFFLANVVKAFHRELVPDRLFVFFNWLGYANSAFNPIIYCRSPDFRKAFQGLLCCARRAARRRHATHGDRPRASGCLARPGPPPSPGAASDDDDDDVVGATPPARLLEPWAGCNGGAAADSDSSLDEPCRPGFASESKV

[13] = DRUGMATRIX: Glutamate, Kainate radioligand binding (ligand: [3H] Kainic acid); format: cell membranes, Rattus norvegicus, Wistar, Brain, Membrane; conditions: Not Active = under 50% inhibition at 10 µM
[14] = target: T4, Muscarinic acetylcholine receptor M4 (Homo sapiens, UniProt P08173); format: cell membranes, CHO-K1, Membrane; also: in other assays of this panel Not Active means under 50% inhibition at 10 µM
T4 sequence (P08173 whole entry): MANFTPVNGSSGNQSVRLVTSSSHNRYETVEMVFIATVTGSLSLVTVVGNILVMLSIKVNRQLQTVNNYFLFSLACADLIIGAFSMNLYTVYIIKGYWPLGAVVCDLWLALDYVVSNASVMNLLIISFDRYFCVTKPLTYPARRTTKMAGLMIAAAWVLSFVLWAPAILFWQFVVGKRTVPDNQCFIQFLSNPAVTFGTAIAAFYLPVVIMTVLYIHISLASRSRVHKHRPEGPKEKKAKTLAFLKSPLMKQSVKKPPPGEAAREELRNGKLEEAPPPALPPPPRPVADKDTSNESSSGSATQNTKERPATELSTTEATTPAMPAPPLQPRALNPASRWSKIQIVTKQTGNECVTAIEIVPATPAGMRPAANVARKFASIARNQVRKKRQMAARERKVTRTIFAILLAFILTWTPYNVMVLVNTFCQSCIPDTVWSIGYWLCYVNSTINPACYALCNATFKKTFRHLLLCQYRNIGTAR

COS(C)(=O)=O [METHANESULFONIC ACID METHYL ESTER]
IC50 [1]: Not Active
Ki [1]: Not Active
IC50 [2]: Not Active
IC50 [3]: Not Active
Ki [3]: Not Active
IC50 [4]: Not Active
Ki [4]: Not Active
IC50 [5]: Not Active
Ki [5]: Not Active
IC50 [6]: Not Active
IC50 ([7]; cho): Not Active
IC50 [8]: Not Active
IC50 ([9]; reticulocytes): Not Active
IC50 [10]: Not Active
Ki [10]: Not Active
IC50 [11]: Not Active
IC50 [12]: Not Active
IC50 [13]: Not Active
Ki [13]: Not Active
IC50 ([14]; cho-k1): Not Active

COC(=O)c1ccc(O)cc1 [METHYLPARABEN]
IC50 [1]: Not Active
Ki [1]: Not Active
IC50 [2]: Not Active
IC50 [3]: Not Active
Ki [3]: Not Active
IC50 [4]: Not Active
Ki [4]: Not Active
IC50 [5]: Not Active
Ki [5]: Not Active
IC50 [6]: Not Active
IC50 ([7]; cho): Not Active
IC50 [8]: Not Active
IC50 ([9]; reticulocytes): Not Active
IC50 [10]: Not Active
Ki [10]: Not Active
IC50 [11]: Not Active
IC50 [12]: Not Active
IC50 [13]: Not Active
Ki [13]: Not Active
IC50 ([14]; cho-k1): Not Active

C[C@](N)(Cc1ccc(O)cc1)C(=O)O [METYROSINE]
IC50 [1]: Not Active
Ki [1]: Not Active
IC50 [2]: Not Active
IC50 [3]: Not Active
Ki [3]: Not Active
IC50 [4]: Not Active
Ki [4]: Not Active
IC50 [5]: Not Active
Ki [5]: Not Active
IC50 [6]: Not Active
IC50 ([7]; cho): Not Active
IC50 [8]: Not Active
IC50 ([9]; reticulocytes): Not Active
IC50 [10]: Not Active
Ki [10]: Not Active
IC50 [11]: Not Active
IC50 [12]: Not Active
IC50 [13]: Not Active
Ki [13]: Not Active
IC50 ([14]; cho-k1): Not Active

Clc1ccc(C(c2ccccc2Cl)C(Cl)Cl)cc1 (configuration not stated) [MITOTANE]
IC50 [1]: Not Active
Ki [1]: Not Active
IC50 [2]: Not Active
IC50 [3]: Not Active
Ki [3]: Not Active
IC50 [4]: Not Active
Ki [4]: Not Active
IC50 [5]: Not Active
Ki [5]: Not Active
IC50 [6]: Not Active
IC50 ([7]; cho): Not Active
IC50 [8]: Not Active
IC50 ([9]; reticulocytes): Not Active
IC50 [10]: Not Active
Ki [10]: Not Active
IC50 [11]: Not Active
IC50 [12]: Not Active
IC50 [13]: Not Active
Ki [13]: Not Active
IC50 ([14]; cho-k1): Not Active

O=C1c2c(O)ccc(O)c2C(=O)c2c(NCCNCCO)ccc(NCCNCCO)c21 [MITOXANTRONE]
IC50 [1]: Not Active
Ki [1]: Not Active
IC50 [2]: Not Active
IC50 [3]: Not Active
Ki [3]: Not Active
IC50 [4]: Not Active
Ki [4]: Not Active
IC50 [5]: Not Active
Ki [5]: Not Active
IC50 [6]: Not Active
IC50 ([7]; cho): Not Active
IC50 [8]: Not Active
IC50 ([9]; read-out: IC50): 1790 nM
IC50 [10]: Not Active
Ki [10]: Not Active
IC50 [11]: Not Active
IC50 [12]: Not Active
IC50 [13]: Not Active
Ki [13]: Not Active
IC50 ([14]; read-out: IC50): 644 nM
Ki ([14]; read-out: Ki): 89.8 nM

COc1c(C)c2c(c(O)c1C/C=C(\C)CCC(=O)OCCN1CCOCC1)C(=O)OC2 [MYCOPHENOLATE MOFETIL]
IC50 [1]: Not Active
Ki [1]: Not Active
IC50 [2]: Not Active
IC50 [3]: Not Active
Ki [3]: Not Active
IC50 [4]: Not Active
Ki [4]: Not Active
IC50 [5]: Not Active
Ki [5]: Not Active
IC50 [6]: Not Active
IC50 ([7]; cho): Not Active
IC50 [8]: Not Active
IC50 ([9]; reticulocytes): Not Active
IC50 [10]: Not Active
Ki [10]: Not Active
IC50 [11]: Not Active
IC50 [12]: Not Active
IC50 [13]: Not Active
Ki [13]: Not Active
IC50 ([14]; cho-k1): Not Active

COC(=O)C1=C(C)NC(C)=C(C(=O)OC)C1c1ccccc1[N+](=O)[O-] [NIFEDIPINE]
IC50 [1]: Not Active
Ki [1]: Not Active
IC50 [2]: Not Active
IC50 [3]: Not Active
Ki [3]: Not Active
IC50 [4]: Not Active
Ki [4]: Not Active
IC50 [5]: Not Active
Ki [5]: Not Active
IC50 [6]: Not Active
IC50 ([7]; read-out: IC50): 7.7 µM
Ki ([7]; read-out: Ki): 4.49 µM
IC50 [8]: Not Active
IC50 ([9]; read-out: IC50): 15100 nM
IC50 [10]: Not Active
Ki [10]: Not Active
IC50 [11]: Not Active
IC50 [12]: Not Active
IC50 [13]: Not Active
Ki [13]: Not Active
IC50 ([14]; cho-k1): Not Active

NNc1ccccc1 [PHENYLHYDRAZINE]
IC50 [1]: Not Active
Ki [1]: Not Active
IC50 [2]: Not Active
IC50 [3]: Not Active
Ki [3]: Not Active
IC50 [4]: Not Active
Ki [4]: Not Active
IC50 [5]: Not Active
Ki [5]: Not Active
IC50 [6]: Not Active
IC50 ([7]; cho): Not Active
IC50 [8]: Not Active
IC50 ([9]; read-out: IC50): 1670 nM
IC50 [10]: Not Active
Ki [10]: Not Active
IC50 [11]: Not Active
IC50 [12]: Not Active
IC50 [13]: Not Active
Ki [13]: Not Active
IC50 ([14]; cho-k1): Not Active
